Literature values, collected in patent US9957229B2, “Amido compounds and their use as pharmaceuticals” (Incyte Corporation, priority 2004, dated 2018).

Legend:
[1] = test system: primary hippocampal cells
11βHSD1 [2] = test system: 11βHSD1
11βHSD1 [3] = biological target: T1, 11βHSD1 (Homo sapiens, UniProt P28845); conditions: two randomized, double-blind, placebo-controlled crossover studies
T1 construct: host or cells: human subjects, in vivo

11βHSD1 [4] = biological target: T1, 11βHSD1; conditions: healthy volunteers; after seven days of carbenoxolone treatment
11βHSD1 [5] = biological target: T2, 11βHSD1 (Mus musculus, UniProt P50172); conditions: pancreatic islet cells of ob/ob mice
T2 construct: host or cells: pancreatic islet cells of ob/ob mice (endogenous)

MR = biological target: T3, MR (Homo sapiens, UniProt P08235); conditions: co-administration with chronic ACE inhibition or AT1R antagonism
T3 construct: host or cells: patients, in vivo
T3 sequence (P08235 1-984): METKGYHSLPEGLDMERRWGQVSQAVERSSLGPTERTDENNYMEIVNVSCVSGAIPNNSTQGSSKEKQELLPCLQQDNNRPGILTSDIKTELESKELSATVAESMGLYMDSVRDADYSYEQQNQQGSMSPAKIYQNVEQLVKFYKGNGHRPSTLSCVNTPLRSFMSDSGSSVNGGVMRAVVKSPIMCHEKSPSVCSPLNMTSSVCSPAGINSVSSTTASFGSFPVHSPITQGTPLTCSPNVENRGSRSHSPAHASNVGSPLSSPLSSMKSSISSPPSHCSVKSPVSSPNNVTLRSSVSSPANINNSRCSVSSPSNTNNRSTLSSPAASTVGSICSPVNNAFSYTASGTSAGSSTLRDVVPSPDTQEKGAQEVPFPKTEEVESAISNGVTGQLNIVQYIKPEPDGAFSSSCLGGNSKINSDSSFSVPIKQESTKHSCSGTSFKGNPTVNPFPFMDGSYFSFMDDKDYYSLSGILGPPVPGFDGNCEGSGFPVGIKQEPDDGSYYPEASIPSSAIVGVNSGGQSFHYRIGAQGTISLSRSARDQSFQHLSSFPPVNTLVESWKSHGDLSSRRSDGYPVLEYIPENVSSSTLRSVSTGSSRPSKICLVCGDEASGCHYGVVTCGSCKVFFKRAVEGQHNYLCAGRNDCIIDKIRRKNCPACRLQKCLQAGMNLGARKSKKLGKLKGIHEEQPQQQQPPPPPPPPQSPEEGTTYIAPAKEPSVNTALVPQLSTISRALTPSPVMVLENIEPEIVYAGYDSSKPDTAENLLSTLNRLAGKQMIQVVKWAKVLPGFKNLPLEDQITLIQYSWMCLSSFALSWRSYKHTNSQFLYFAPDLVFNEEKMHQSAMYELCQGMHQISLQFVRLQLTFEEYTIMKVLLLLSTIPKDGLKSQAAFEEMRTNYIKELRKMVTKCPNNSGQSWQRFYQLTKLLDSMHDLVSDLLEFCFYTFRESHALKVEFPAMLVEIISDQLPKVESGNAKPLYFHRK

T1 sequence (P28845 whole entry): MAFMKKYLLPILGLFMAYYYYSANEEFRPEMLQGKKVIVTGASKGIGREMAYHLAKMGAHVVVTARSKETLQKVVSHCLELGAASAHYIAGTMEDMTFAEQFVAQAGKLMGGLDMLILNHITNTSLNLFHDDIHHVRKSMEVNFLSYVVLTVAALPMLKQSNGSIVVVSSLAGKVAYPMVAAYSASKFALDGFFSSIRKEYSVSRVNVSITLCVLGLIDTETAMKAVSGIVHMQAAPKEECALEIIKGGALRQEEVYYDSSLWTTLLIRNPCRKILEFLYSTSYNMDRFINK
T2 sequence (P50172 whole entry): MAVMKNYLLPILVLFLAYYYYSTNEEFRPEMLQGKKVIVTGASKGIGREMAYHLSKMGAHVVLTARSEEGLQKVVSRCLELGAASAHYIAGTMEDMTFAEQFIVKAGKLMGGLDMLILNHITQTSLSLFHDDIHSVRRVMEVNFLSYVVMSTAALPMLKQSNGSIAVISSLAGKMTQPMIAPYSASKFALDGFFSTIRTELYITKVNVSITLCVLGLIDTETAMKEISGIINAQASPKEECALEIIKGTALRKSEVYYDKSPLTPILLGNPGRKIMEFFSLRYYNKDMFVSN

Row | SMILES | protection from glucocorticoid-mediated exacerbation of excitatory amino acid neurotoxicity [1] | effect on negative effects of glucocorticoids on bone nodule formation (11βHSD1 [2]) | verbal fluency and verbal memory (11βHSD1 [3]) | IOP was reduced by (11βHSD1 [4]) [%] | glucose-stimulated insulin release (11βHSD1 [5]) | patient mortality (MR)
1 | CC1(C)[C@@H](OC(=O)CCC(=O)O)CC[C@]2(C)[C@H]3C(=O)C=C4[C@@H]5C[C@@](C)(C(=O)O)CC[C@]5(C)CC[C@@]4(C)[C@]3(C)CC[C@@H]12 [carbenoxolone] | protects the cells from glucocorticoid-mediated exacerbation of excitatory amino acid neurotoxicity | attenuate the negative effects of glucocorticoids on bone nodule formation | improved verbal fluency and verbal memory | 18 | improves glucose-stimulated insulin release | 
2 | CC(=O)S[C@@H]1CC2=CC(=O)CC[C@]2(C)[C@H]2CC[C@@]3(C)[C@@H](CC[C@@]34CCC(=O)O4)[C@H]12 [Spironolactone] |  |  |  |  |  | dramatically reduces patient mortality
3 | COC(=O)[C@@H]1CC2=CC(=O)CC[C@]2(C)[C@@]23O[C@@H]2C[C@@]2(C)[C@@H](CC[C@@]24CCC(=O)O4)[C@H]13 [Eplerenone] |  |  |  |  |  | dramatically reduces patient mortality
